Molecules are shown by their SMILES.

Data set [1] deals with T1, human α-synuclein aggregates (Homo sapiens, UniProt P37840).
T1 construct: made in house; host or cells: E. coli BL21 (DE3)
Nature of the data set: Binding affinity of the compounds to α-synuclein aggregates (fluorescence method). The settings on record: fluorescence saturation binding; α-synuclein aggregates (PFFs) 3 μM; room temperature, 1 hour. The protocol:
α-synuclein monomers were prepared into a buffer solution containing 1×PBS, where the final protein concentration was 100 μM ([…]), and incubated in a 1000 rpm shaker at 37° C. for 7 days to obtain α-synuclein aggregates. The initial and final concentrations of the monomer protein were determined by the BCA method.
The prepared α-synuclein aggregates, also known as preformed fibrils (PFFs), are used for protein affinity testing, construction of cell model, and testing of the invention.
10 mM mother solution of DMSO was prepared from 1 mg of the compound, then diluted to 20 μM with PBS, and made gradient dilution 7 times (3× each dilution); 30 μL of test compound was added to the 384-well plate, following the experimental group was added to 30 μL α-synuclein aggregates (3 μM), and the control group was added to the same amount of PBS. After the 384-well plate was incubated shaking at 50 rpm at room temperature for 1 hour, the plate was taken out to detect the maximum absorption and emission wavelengths of the compound with an ELISA Microplate Reader, and the fluorescence values were detected at these wavelengths, too. The fluorescence changes in different concentrations of compounds were calculated using the experimental group data minus the control group data, and the protein-binding affinity of compounds was obtained using the Saturation binding module of GraphPad Prism.
The binding affinity of the Formula I compound to α-synuclein aggregates is determined by the above method, and the dissociation equilibrium constant Kd is shown in Table 1.

In data set [2] the target is T2, Lewy bodies and Lewy neurites (α-synuclein lesions) (Homo sapiens, UniProt P37840).
T2 construct: from tissue; host or cells: human DLB patient amygdala, fresh frozen sections
The data set is described as follows: Fluorescence staining of brain slices from patients of dementia with Lewy body (DLB). On the procedure:
Brain slices from patients of dementia with Lewy bodies were taken from the amygdala of a deceased person in stage 2 of dementia with Lewy bodies. Frozen sections of the amygdala with rich α-synuclein were performed with a thickness of 20 μm.
(§1) Compound I-15 was diluted to 30 μM with PBS solution containing 50% EtOH, following incubated with the fresh frozen brain sections at room temperature for 30 minutes, then washed with 50% ethanol solution for 5 minutes and ultra-pure water twice for 3 minutes each time in sequence. After the sections were buried with an embedding agent (VECTASHIELD H-1000, Vector Laboratories), images of the lesion accumulation area on the sections were obtained by fluorescence microscopy. Analysis software (Image J) was used to quantify the fluorescence radiance of both the lesion area and the area of the non-forming lesion (background) to evaluate binding selectivity.

The subject of data set [3] is Aβ plaques and Tau neurofibrillary tangles. Nature of the data set: Fluorescence staining of brain slices from patients with Alzheimer's disease (AD). The settings on record: AD patient superior temporal gyrus sections, compound 30 μM. Details: species or system human. The protocol:
as §1
The dewaxed brain tissue was fixed in a 10% neutral buffer of formalin solution, embedded with paraffin, and then sliced with a thickness of 6 μm. The staining method is the same as the above method for DLB patients.

Data set [4] in a line: Blood-brain barrier permeability test in rat. In kind it is in vivo. The settings on record: brain homogenate / blood supernatant after centrifugation, intravenous, SD rats, 5 mg/kg tail vein, 20 min after administration, LC-MS/MS, >0.3 indicates good blood-brain barrier penetration, read-out: brain/blood ratio. The protocol: The compound of the invention is injected into a rat tail vein to determine the blood-brain barrier permeability in vivo according to the following method.
Dissolve the tested compound in DMSO, and add castor oil and PBS for dilution (DMSO:castor oil:PBS=1:1:8). SD rats were weighed and given 5 mg/kg in the tail vein. 500 μL of blood was taken 20 min after administration after anesthetized with isoflurane. Cardiac perfusion was performed with 200 mL PBS and stopped until the organ faded, following brain tissue was got out and washed with PBS.
After centrifuging the extracted blood at 9000 rpm for 5 min, 200 μL supernatant was taken, and added 800 μL methanol. After centrifuging at 14000 rpm for 10 min, the supernatant was taken and filtered through a 0.22 μm filter membrane and stored at −80° C. for use. 2 mL PBS and 2 mL methanol were added to about 0.5 g of brain tissue to make a tissue homogenization, and then 1 mL homogenate was taken out and centrifuged at 14,000 rpm for 10 min after 2 mL methanol was added, 1 mL supernatant was taken through 0.22 μm filter membrane and stored at −80° C. for use. The concentration of compounds in the above supernatant of blood and brain homogenate were checked by LC-MS/MS, respectively.
A brain/blood ratio of <0.1, 0.1-0.3, or >0.3 indicates blood-brain barrier penetration of weak, moderate, or good, respectively. […] Since all the compounds of the invention have similar structures and their clogP values are mostly between 1.0 and 3.0, it can be predicted that other compounds of the invention should also have acceptable blood-brain barrier permeability.

Data set [5] has as its target T3, α-synuclein aggregates in SH-SY5Y cells (Homo sapiens, UniProt P37840).
T3 construct: made in house; host or cells: E. coli BL21 (DE3)
Nature of the data set: Immunofluorescence imaging of SH-SY5Y cell model with α-synuclein aggregates (PFFs). The settings on record: co-staining with α-synuclein antibody, compound 1 h at room temperature. In kind it is cell-based. On the procedure: SH-SY5Y cells belong to the SK—N—SH cell line and are a kind of human neuroblastoma cells. These cells can express a variety of important proteins of neurons, such as dopaminergic transporters, dopamine hydroxylase, and tyrosine hydroxylase, so they are often used in the study of the mechanism and pharmacodynamic evaluation of Parkinson's disease. The prepared α-synuclein aggregates (PFFs) are co-incubated with SH-SY5Y cells and endocytosed into cells after 12 hours through endocytosis. The cells were further incubated with α-synuclein antibodies and compounds successively, and observed by microscope after washing with PBS. The detailed operations are as follows.
SH-SY5Y cells were cultured in a high-glucose DMEM medium (containing 10% Gibco fetal bovine serum). After 5 times of resuscitation and passage, the cell state tended to be stable. Then PFFs was added to the medium and fluorescent staining was performed after 48 h. After sucked the cell culture solution and cleaned with PBS three times, 0.3% Triton X-100 was added and incubated for 10 min. After washing with PBS, 10% goat serum was added and closed for 1 h; After cleaning with PBS, primary antibody (1:1000, 610786, BD Biosciences) was added and incubated at 4° C. overnight. After cleaning with PBS, secondary antibodies (1:1000, goat-anti-rabbit Alex Fluor 594, and goat-anti-mouse Alex Fluor 488, Invitrogen) were added and incubated at room temperature for 2 h. Finally, the compound of the invention is added and incubated at room temperature for 1 h. After cleaning with PBS, the tablet is sealed and photographed by a laser confocal microscope.

Compound `CN(C)c1ccc(/C=C/c2nc3cc(F)ccc3n(Cc3ccncc3)c2=O)cc1` [I-3] returned a Kd in data set [1] of 0.5 to 1 µM.
Compound `CN(C)c1ccc(/C=C/c2nc3cc(F)ccc3n(Cc3ccccn3)c2=O)cc1` [I-1] gave a Kd in data set [1] of 0.1 to 0.2 µM.
In the case of `CN(C)c1ccc(/C=C/c2nc3cc(OCCF)ccc3n(Cc3cccnc3)c2=O)cc1` [I-9], the Kd in data set [1] lay in the range of 0.5 to 1 µM.
On to `CN(C)c1ncc(/C=C/c2nc3cc(OCCF)ccc3n(Cc3ccccn3)c2=O)s1` [I-15], for which the Kd in data set [1] lay within 0.1 to 0.2 µM. The “binding affinity to α-synuclein lesions (staining of Lewy bodies and Lewy neurites, FIG. 2)” value in data set [2] (DLB patient amygdala frozen sections, compound 30 μM, 30 minutes) is “strong binding affinity”. In data set [2] (DLB versus AD brain slices, FIG. 2 and FIG. 3), the “binding to α-synuclein pathological tissue compared with Aβ and Tau pathological tissue (selectivity)” value is given as “significantly stronger”. In addition, in data set [3], the “binding affinity to Aβ and Tau histology (FIG. 3)” value is reported as “very weak”; the “binding to Tau neurofibrillary filaments (FIG. 3)” value is “did not bind”. In addition, the Kp at 20 min in data set [4] was not below 1. Moreover, the “binding to α-synuclein aggregates in SH-SY5Y cells (immunofluorescence, FIG. 1)” value (shortened to “binding to α-synuclein aggregates”) in data set [5] was “excellent binding affinity and specificity”.
In data set [1], `CN(C)c1ccc(/C=C/c2nc3cc(OCCF)ccc3n(Cc3ccncc3)c2=O)cc1` [I-12] came in with a Kd of 0.2 to 0.5 µM. In data set [4], the Kp at 20 min is not below 1. The “binding to α-synuclein aggregates” value in data set [5] is “excellent binding affinity and specificity”.
For `CN(C)c1ccc(/C=C/c2nc3cc(OCCF)ccc3n(Cc3ccccn3)c2=O)cc1` [I-6], the dissociation constant (Kd) in data set [1] was 0.2 to 0.5 µM. In addition, in data set [4], the Kp at 20 min was not below 1. The “binding to α-synuclein aggregates” value in data set [5] is “excellent binding affinity and specificity”.
On to `CN(C)c1ccc(/C=C/c2nc3cc(F)ccc3n(Cc3cccnc3)c2=O)cc1` [I-2], for which, in data set [1], the Kd was 0.5 to 1 µM.

Broadly, the Kd is a measure of binding affinity in units of concentration. The low end stands for tighter binding, the high end for weaker binding.

Source of the values: US20260207795A1, “SMALL MOLECULE TRACERS BINDING TO ALPHA-SYNUCLEIN AGGREGATES AND THEIR USES” (Fudan University, priority 2021, published 2026).
